Earlier results on one molecule are cited in US20190008832A1, “COMPOSITIONS FOR THE TREATMENT OF PRESBYOPIA” (priority 2015, published 2019).

Molecules are shown by their SMILES.

The subject of the series is eye.

For `CC[C@@H]1C(=O)OC[C@@H]1Cc1cncn1C` [pilocarpine], the “Side effects in some patients” value (WO2008/075149 compositions: pilocarpine HCl 1% and diclofenac sodium 0.5%) is “causes diarrhea and dyspepsia”. For the same molecule, where the note is “single active ingredient in a topical composition”, the “Percentage of pilocarpine necessary to be effective in the treatment of presbyopia” value is given as “greater than 0.5 % by weight”. Moreover, where the note is “topical, reddening of the eye, ocular and forehead pain, headaches”, the “Tolerability of pilocarpine at percentages higher than 0.5% by weight” value is “not tolerated”.
